In patent US8314079B2, “Hyaluronic acid oligosaccharide fractions and drugs containing the same” (Seikagaku Corporation, priority 2000, dated 2012):

Tests used:
HSF1 = assay: Phosphorylation (activation) of HSF1 in heat-shocked K562 cells, band shift 66 kDa to 81 kDa by SDS-PAGE/Western blotting; type: cell-based, human; settings: for shift of a band of 66 kDa (HSF1 not phosphorylated) to a band of 81 kDa (phosphorylated HSF1): Experiment 1, 1, 10 or 100 ng/mL, heat shock 42° C., 20 minutes; for amount of HSF1 per se / band shift of HSF1 (66 kDa to 81 kDa): Experiment 2 (and comparative Experiment 3), 100 ng/mL, heat shock 43° C.
Source text: It is known that HSF1 (heat shock factor 1) protein is a transcription factor of Hsp70 (J. Biol. Chem., 271, pp. 3355-3358, 1996). Moreover, the HSF1 protein can be activated by phosphorylation, and this phosphorylation can be detected based on band shift in SDS-polyacrylamide gel electrophoresis (SDS-PAGE) (apparent molecular weight shifts from about 66 kDa to about 81 kDa). By utilizing this fact, the HA oligosaccharides of various sizes were allowed to act on the K562 cells given with stress, and the aforementioned band shift was detected to investigate the degree of the phosphorylation (activation) of HSF1.
HA4, ΔHA4, HA6, HA8, HA2-18 and HA 8-14 were each added to a medium containing the aforementioned cells at a concentration of 1, 10 or 100 ng/mL. Then, the cells were immediately transferred into an environment at 42° C. to be given with heat shock and incubated for 20 minutes. After the incubation, the cells were collected by centrifugation, and SDS-PAGE (gel concentration: 10%) was performed. Thereafter, Western blotting was performed by using anti-HSF1 monoclonal antibodies (produced by Stressgene) as primary antibodies and goat anti-mouse IgG monoclonal antibodies (produced by Jackson Lab) as secondary antibodies to detect the shift of a band of 66 kDa (HSF1 not phosphorylated) to a band of 81 kDa (phosphorylated HSF1).
In order to confirm the reproducibility of Experiment 1, the band shift was detected in the same manner as in Experiment 1 by using HA4, ΔHA4, HA8 and HA84 except that HA was added in a single kind of amount of 100 ng/mL, and the heat shock was given at 43° C. In FIG. 41, the first lane from the left indicates the result obtained with an extract of cells incubated at 37° C. (no addition of HA oligosaccharide), the second lane indicates the result obtained with an extract of cells subjected to 43° C. (no addition of HA oligosaccharide), and the first lane from the right indicates the result of detection of HSF1 (derived from bacteria) as a standard.
In order to investigate whether the action observed in Experiment 2 was specific to the saccharide chain basic structure of HA oligosaccharides, the following comparative experiment was performed by using chondroitin oligosaccharides. […] Therefore, it can be said that Ch is a substance extremely structurally analogous to HA, and the same shall also apply to the oligosaccharides thereof. • Saturated Ch tetrasaccharide (Ch4) • GlcAβ1-3GalNAcβ1-4GlcAβ1-3GalNAc • Saturated Ch hexasaccharide (Ch6) • GlcAβ1-3GalNAcβ1-4GlcAβ1-3GalNAcβ1-4GlcAβ1-3GalNAc • Saturated Ch octasaccharide (Ch8) • GlcAβ1-3GalNAcβ1-4GlcAβ1-3GalNAcβ1-4GlcAβ1-3GalNAcβ1-4GlcAβ1-3GalNAc
The same experiment as Experiment 2 was performed by using these oligosaccharides.

Hsp72 = assay: Expression of Hsp72 in K562 cells given heat shock, Western blotting; type: cell-based, human
Description: HA2, ΔHA4, HA6, HA84 and L4L4 were each added to a medium containing the aforementioned cells (37° C.) at a concentration of 1, 10 or 100 ng/mL. Then, the cells were immediately transferred into an environment at 43° C. to be given with heat shock and incubated for 20 minutes. Then, the cells were returned to 37° C., then further incubated for 2 hours and collected by centrifugation, and SDS-PAGE was performed in the same manner as in <1> mentioned above. Thereafter, Western blotting was performed by using anti-Hsp72 monoclonal antibodies (produced by Amersham) as primary antibodies and goat anti-rabbit IgG monoclonal antibodies (produced by Jackson Lab) as secondary antibodies to detect Hsp72. Hsp72 is one of the members of Hsp70 family and is the most typical one, and it is known that its expression is induced and promoted by stress.
The leftmost lane in FIG. 42a indicates the results of the detection of Hsp72 in a similar manner with giving no heat shock (37° C.) and addition of no test substance, and the rightmost lane indicates the results of detection of standard Hsp72 (Hsp72 derived from bacteria, bHsp72) in a similar manner.

SMILES	shift of a band of 66 kDa (HSF1 not phosphorylated) to a band of 81 kDa (phosphorylated HSF1) (HSF1)	amount of HSF1 per se (HSF1)	band shift of HSF1 (66 kDa to 81 kDa) (HSF1)	expression of Hsp72 (Hsp72; K562 cells not given heat shock)	expression of Hsp72 (Hsp72; K562 cells, 1, 10 or 100 ng/mL, heat shock 43° C. 20 minutes, then 37° C. 2 hours)
CC(=O)N[C@H]1[C@H](O[C@H]2[C@H](O)[C@@H](O)[C@H](O[C@H]3[C@H](O)[C@@H](CO)O[C@@H](O[C@H]4[C@H](O)[C@@H](O)[C@H](O[C@H]5[C@H](O)[C@@H](CO)OC(O)[C@@H]5NC(C)=O)O[C@@H]4C(=O)O)[C@@H]3NC(C)=O)O[C@@H]2C(=O)O)O[C@H](CO)[C@@H](O)[C@@H]1O[C@@H]1O[C@H](C(=O)O)[C@@H](O)[C@H](O)[C@H]1O.[Na].[Na].[Na] (stereo partly drawn) [HA6, sodium β-D-glucopyranosyluronate-[(1→3)-2-acetamido-2-deoxy-β-D-glucopyranosyl-(1→4)-(sodium β-D-glucopyranosyluronate)]2-(1→3)-2-acetamido-2-deoxy-D-glucopyranose]	shift to the 81 kDa band was observed depending on the amount of the added HA oligosaccharide	–	–	–	–
CC(=O)N[C@H]1[C@H](O[C@H]2[C@H](O)[C@@H](O)[C@H](O[C@H]3[C@H](O)[C@@H](CO)O[C@@H](O[C@H]4[C@H](O)[C@@H](O)[C@H](O[C@H]5[C@H](O)[C@@H](CO)O[C@@H](O[C@H]6[C@H](O)[C@@H](O)[C@H](O[C@H]7[C@H](O)[C@@H](CO)OC(O)[C@@H]7NC(C)=O)O[C@@H]6C(=O)O)[C@@H]5NC(C)=O)O[C@@H]4C(=O)O)[C@@H]3NC(C)=O)O[C@@H]2C(=O)O)O[C@H](CO)[C@@H](O)[C@@H]1O[C@@H]1O[C@H](C(=O)O)[C@@H](O)[C@H](O)[C@H]1O (stereo partly drawn) [HA8, sodium β-D-glucopyranosyluronate-[(1→3)-2-acetamido-2-deoxy-β-D-glucopyranosyl-(1→4)-(sodium β-D-glucopyranosyluronate)]3-(1→3)-2-acetamido-2-deoxy-D-glucopyranose]	inhibition of the band shift was observed	increase of the amount of HSF1 of 66 kDa was observed	band shift to the band of 81 kDa was not observed	–	–
CC(=O)NC1C(O)OC(CO)[C@@H](O)C1O[C@@H]1OC(C(=O)[O-])[C@@H](O[C@@H]2OC(CO)[C@@H](O)C(O[C@@H]3OC(C(=O)[O-])=CC(O)C3O)C2NC(C)=O)C(O)C1O.[Na+].[Na+] (stereo partly drawn) [ΔHA4, ΔGlcAβ1-3GlcNAcβ1-4GlcAβ1-3GlcNAc]	shift to the 81 kDa band was observed depending on the amount of the added HA oligosaccharide	amounts of both HSF1 of 66 kDa and 81 kDa per se were also increased	band shift was observed	enhancement of the expression of Hsp72 by ΔHA4 was not observed	particularly strongly enhanced
